Reference: patent US20130029909A1, “TREATMENT OF CANCER” (priority 2009, published 2013)
Read-outs that look alike come from different tables or passages of the source.

What was measured:
[1] = system: H1299 cells; assay: H1299 human NSCLC xenograft model in nu/nu mice; conditions: for median tumor volume (MTV) of survivors: D74, gemcitabine 120 mg/kg (five TFS), docetaxel 30 mg/kg (two D74 survivors); for tumor-free survival (TFS): 74 days post first treatment, CRLX101 10 mg/kg qwk×3, gemcitabine 120 mg/kg q3d×4, topotecan 12 mg/kg q4d×3
Description: (§1) Animals were randomly divided into seven groups and treatment was started on day-15 post implantation, when the mean tumor volume was approximately 115 mm^3.
(§2) Body weight was measured daily on Days 1-5, then twice weekly until the completion of the study. Tumor volume was measured twice weekly and each animal was euthanized when the calculated tumor volume reached the 2000 mm^3 endpoint, or on day-88 post implantation, whichever came first.

[2] = system: H1299 cells; conditions: mouse, in vivo
Description: as §1, §2

[3] = system: human ovarian carcinoma A2780 cells; conditions: 72 h, MTS
Description: The human ovarian carcinoma A2780 cells were obtained from the American Type Culture Collection. […] The medium was replaced with fresh medium containing the test compound at concentrations ranging from 0.01 nmol/L to 1 μmol/L. Triplicate wells per plate were treated at each concentration. Controls were vehicle-treated cells and medium only blank. […] MTS assay reagent was prepared by diluting CellTiter 96 AQueous One Solution (Promega) 5-fold into PBS/glucose (4.5 g/L). Cell culture medium was aspirated and 100 μL of MTS reagent were added to each well. Plates were incubated at 37° C. for 1 h. The plates were shaken for 5 min and the absorbance was measured at 485 nm using a [sequence]uor Plus plate reader (Tecan). The percentage of cell survival was calculated relative to untreated cells, and IC50s were estimated from the graphs of log dose (nmol/L) versus % cell survival (GraphPad Prizm).

| SMILES | median tumor volume (MTV) of survivors [1] [mm3] | BW Nadir (lowest group mean body weight, as % change from Day 1) [2] [%] | tumor-free survival (TFS) [1] [%] | also measured |
| --- | --- | --- | --- | --- |
| CC(=O)O[C@@]12CO[C@@H]1C[C@H](O)[C@@]1(C)C(=O)[C@H](O)C3=C(C)[C@@H](OC(=O)[C@H](O)[C@@H](NC(=O)OC(C)(C)C)c4ccccc4)C[C@@](O)([C@@H](OC(=O)c4ccccc4)[C@H]21)C3(C)C [Docetaxel, docetaxel] | 302 |  |  | group mean body weight loss ([1]; docetaxel 30 mg/kg on D21): 9.3%; survival ([1]; docetaxel 30 mg/kg qwk×3, D74, no TFS): 20%; BW Nadir (lowest group mean body weight, as % change from Day 1) ([1]; same regimens as E168, '—' indicates that no decrease in mean body weight was observed): −9.3% |
| Nc1ccn([C@@H]2O[C@H](CO)[C@@H](O)C2(F)F)c(=O)n1 [Gemcitabine, gemcitabine] | 0 | −2.3 | 50 |  |
| CC[C@@]1(O)C(=O)OCc2c1cc1n(c2=O)Cc2cc3c(CN(C)C)c(O)ccc3nc2-1 [Topotecan, topotecan] |  | −0.6 | 10 |  |
| CCc1c2c(nc3ccc(O)cc13)-c1cc3c(c(=O)n1C2)COC(=O)[C@]3(O)CC [SN-38, 20(S)-7-ethyl-10-hydroxycamptothecin] |  |  |  | IC50 [3]: 2.44 nM |
| C#Cc1cccc(Nc2ncnc3cc(OCCOC)c(OCCOC)cc23)c1 [Erlotinib, erlotinib] |  | −2.9 |  |  |
